One compound from patent US8907076B2, “Mycobacterial peptide deformylase” (Council of Scientific and Industrial Research, priority 2006, dated 2014) can be followed below.

The experiment concerns the target mPDF (Mycobacterium tuberculosis peptide deformylase) (Mycobacterium tuberculosis, UniProt P9WIJ3). Particulars: 500 mM, pre-incubation up to 2 h at 30° C., 70 ng protein/reaction.

Sequence of mPDF (Mycobacterium tuberculosis peptide deformylase) (P9WIJ3 whole entry): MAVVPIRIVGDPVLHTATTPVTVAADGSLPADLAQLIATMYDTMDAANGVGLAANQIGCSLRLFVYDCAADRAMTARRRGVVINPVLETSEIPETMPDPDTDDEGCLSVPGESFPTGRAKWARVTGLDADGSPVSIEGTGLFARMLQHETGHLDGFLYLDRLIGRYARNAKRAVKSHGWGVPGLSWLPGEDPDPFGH
Description: The ability of mPDF to deformylate methionine was assessed in a spectrophotometric assay following the method described by Groche et al (Groche et al., Biochem. Biophys. Res. Commun. 246 342-346 1998) with slight modification. The assay was carried out in 50 μl reaction volume mPDF protein (usually 70 ng) in 1× assay buffer (100 mM phosphate buffer, pH 7.4 containing 100 μg/ml catalase) was incubated with the substrate (0 to 80 mM of N-formyl-Met-Ala, Sigma, USA) at 30° C. for 30 min. The reaction was terminated by addition of 50 μl of 4% HClO4 and further incubated (37° C. for 2 h) with TNBSA reagent (0.01% in 0.1M NaHCO3 buffer, pH 8.4). Following addition of 10% SDS (250 μl) and 1N HCl (125 μl), the highly chromogenic derivative generated due to reaction of primary amine with TNBSA was measured at 335 nm (Hermanson G, Bioconjugate techniques, Academic press, San Diego, Calif., 1996, pp, 112-113). The values obtained were corrected by subtracting the blank (all ingredients except mPDF enzyme) readings. Standard curves were prepared with known amounts (0-42.8 nmoles) of methionine.

In the case of `OO` [H2O2, hydrogen peroxide], the “effect on the deformylating ability of mPDF compared to the untreated control” value is “did not show any significant effect”.
